Experimental data taken from US8883856B2, “Compositions and methods for the treatment of inflammatory diseases using topoisomerase inhibitors” (priority 2000, dated 2014).
Read-outs that look alike come from different tables or passages of the source.

What was measured:
surgical adhesions = format: in vivo; conditions: for mean surgical adhesion score: 2.5% loaded crosslinked HA film, 8 days, scale 0 (no adhesions) to 3 (inseparable without cutting), control film mean 2.33; for surgical adhesion formation, in words: drug-loaded crosslinked HA films (camptothecin 2.5%, doxorubicin 2.5%, beta-lapachone 5%, curcumin 10%)
Protocol: The rat caecal-sidewall adhesion model was used to test efficacy of crosslinked hyaluroinc acid (HA) polymeric films loaded with one of the following compounds; camptothecin 2.5% loading (w/w to polymer), curcumin 10%, doxorubicin 2.5%, beta-lapachone at 5% or unloaded-no-drug control. Films of 2-2.5 cm^2 were prepared with each drug by the method described in example 10. ETO sterilized, and divided in half at the time of surgical implantation. Sham surgeries omitted the application of HA film as separate controls.
Sprague Dawley rats, 15 male and 15 female, weighing 250-400 g were anaesthetized with Halothane (5%) and maintained, by nose cone, on 1.5-2% Halothane. Surgeries were conducted under sterile conditions. The abdomen was shaved, scrubbed with an antiseptic wash, and opened at the linea alba with a 3 cm incision. A region of the abdominal cavity immediately opposite the large bowel was isolated with bowel clamps, and a #11 scalpel blade was used to score a section of the transversus muscle, describing a rectangle 1×1.5 cm. The muscle was stripped from the peritoneal sidewall with forceps, and minor bleeding was arrested by tamponade. The large bowel was then externalized with sterile swabs, and caecal contents evacuated into the large bowel. Both surfaces of the caecum were stroked, 45 times on each side, with a #10 scalpel blade to produce erythema and punctated bleeding. Each stroke spanned the caecal diameter (approximately 1 cm), and extended along 1.5 cm of the caecal extremity. In only one case did this abrasion procedure cause sustained bleeding requiring ligation. Following 90 blade strokes, the integrity of the tissue was confirmed, and caecum and large bowel were replaced in the pelvis.
The film was laid over the rectangular sidewall abrasion (except in the case of sham surgeries), covering the area of damaged tissue. The abraded caecum, relocated in its previous orientation, was than overlaid such that the entire sidewall wound and film were covered by it. Four tacking sutures were placed at the outer extremities of the abraded area of the caecum securing it to the intact peritoneal sidewall immediately outside the rectangular wound area. The abdomen was closed in two layers, and antibiotics administered intramuscularly before the animal regained consciousness.
. Adhesions over, and adjacent to the caecum were rated according to the following findings: 0: No adhesions connecting caecum to sidewall wound; 1: Filmy or stranded were separable by blunt dissection; 2: Cohesive adhesions attaching the caecum to the sidewall were separable by aggressive blunt dissection; 3: Adhesions inseparable without cutting, or without tearing/damaging caecum. Fractions were assigned where a variety of ratings seemed applicable.

[1] = Perivascular injection of polymeric paste at the rat carotid artery; format: in vivo, Wistar rats; conditions: 1% loading in 40% Triblock / 60% MePEG350 paste, 0.1 to 0.2 ml
Description: Wistar rats weighing 400 g to 500 g were anesthetized with halothane. A vertical incision was made over the trachea and the left external carotid artery was exposed. Connective tissue around the left common carotid artery was left untouched. Two ligatures were placed around the external carotid artery and an arteriotomy was made between them. A 2 French Fogarty balloon was introduced into the external carotid artery and pushed into the left common carotid artery and the balloon was inflated with saline. The balloon was passed up and down the entire length of the carotid artery three times to stretch the vessel and denude the endothelium. The balloon was removed and the ligatures tied off on the external carotid artery. Camptothecin (1% loading) in a polymeric paste (40% Triblock (Angiotech pharmaceuticals) and 60% Methoxypolyethylene glycol (MePEG350)) or the carrier paste alone was injected through a 24 G angiocatheter between a distal segment of the common carotid artery and the surrounding connective tissue. Typically, 0.1 to 0.2 ml of paste was applied around the artery in 4 injections in order to cover the whole circumference of the vessel on a length of approximately 1 cm. The wound was then closed and the animals recovered.

rat carotid artery = format: in vivo; conditions: for inhibition of luminal narrowing / inhibition of intimal hyperplasia: perivascular
Description: In this model of restenosis, a balloon catheter is used to induce damage to the lumen of carotid arteries in rats. This damage causes extensive intimal hyperplasia and luminal narrowing, characteristic of restenosis. To determine the effect of drugs as antirestenosis agents, a polymeric dosage form of a drug is applied to the outside of the artery (perivascular application).
Wistar rats weighing 400 g to 500 g were anesthetized with halothane. A vertical incision was made over the trachea and the left carotid artery was exposed. Two ligatures were placed around the external carotid artery and an arteriotomy was made between them. A 2 French Fogarty balloon catheter was introduced into the external carotid artery and pushed into the left common carotid artery and the balloon was inflated with saline. The catheter was passed up and down the entire length of the carotid artery three times to stretch the vessel and denude the endothelium. The catheter was removed and the ligatures were tied off on the external carotid artery. […] The wound was then closed and the animals recovered. After 14 days, the rats were sacrificed and pressure perfused at 100 mmHg with 10% buffered formaldehyde. Both carotid arteries were harvested and processed for histology. Serial cross-sections were cut every 2 mm within and outside the implant in the injured left carotid artery and at corresponding levels in the control right carotid artery. Sections were stained with hematoxylin-and-eosin and Movat's stains and digitized for computer assisted morphometric analysis to quantify luminal narrowing and intimal hyperplasia.

neutrophils [2] = experiment: Neutrophil superoxide anion generation (cytochrome c reduction); format: cell-based, human; conditions: CPPD crystals or fMLP
Protocol: Superoxide anion concentrations were measured using the superoxide dismutase inhibitable reduction of cytochrome c assay. Twenty five mg of crystals or fMLP (final concentration 1 uM with cytochalasin B at 0.5 uM) were placed in 1.5 mL capped Eppendorf tubes and warmed to 37° C. To the tubes were added 0.5 mL of cells at 37° C. and ferricytochrome c (horse heart, type 3) (final concentration 1.2 mg/mL) and the cells were activated by shaking the capped tubes. At appropriate times, tubes were centrifuged at 10,000×g for 10 seconds and the supernatant collected for spectrophotometric assay at 550 nm. Control tubes were set up under the same conditions with the inclusion of superoxide dismutase at 600 units per mL. Plumbagin inhibited the generation of superoxide anions from neutrophils activated by both CPPD crystals or fMLP as shown in FIG. 3.

neutrophils [3] = experiment: Neutrophil degranulation (myeloperoxidase release); format: cell-based, human; conditions: CPPD crystals and fMLP
Protocol: Eppendorf tubes containing either 25 mg of CPPD or 1 uM fMLP (with 0.5 uM cytochalasin B) were maintained at 37° C. To the tubes were added 0.5 mL of cells at 37° C. followed by shaking to initiate the reactions. At appropriate times, tubes were centrifuged at 10,000× g for 10 s and 0.4 mL of supernatant was stored at −20° C. for later assay. Myeloperoxidase (MPO) activity was measured by the increase in absorbance at 450 nm that accompanies the oxidation of o-dianisidine. Dianisidine (7.8 mg) was dissolved in 100 mL of 0.1 M citrate buffer, pH 5.5 and to a 1 mL cuvette were added 0.89 mL of the dianisidine solution, followed by […], […] and […]. MPO activity was determined from the change in absorbance (450 nm) per minute, (ΔA450), using the following relationship: Dianisidine oxidation (nmol/min)=50 ΔA450

**Q.** Which “toxicity of drug-loaded hyaluronic acid films” value (surgical adhesions; rat, in vivo) does the source give for `CC1(C)CCC2=C(O1)c1ccccc1C(=O)C2=O` [beta-lapachone] here?
**A.** did not induce any toxic side effects

**Q.** For `CC[C@@]1(O)C(=O)OCc2c1cc1n(c2=O)Cc2cc3ccccc3nc2-1` [camptothecin], which “adverse effects of perivascular paste injection” value [1] is on record?
**A.** no adverse effects noted in any animal

**Q.** What about the “inhibition of luminal narrowing” value (rat carotid artery; 0.2% (w/w to EVA) film) of the same compound?
**A.** more than 50%

**Q.** What about the “inhibition of intimal hyperplasia” value (rat carotid artery; 0.2%, 1% and 10% loaded EVA films, 14 days) of the same compound?
**A.** partial inhibition

**Q.** What about the “inhibition of intimal hyperplasia” value (rat carotid artery; 20% loaded EVA film, 14 days) of the same compound?
**A.** Complete inhibition

**Q.** What about the luminal narrowing (rat carotid artery; all concentrations above 0.2% in EVA film) of the same compound?
**A.** reduced the luminal narrowing to almost zero

**Q.** What about the “mean surgical adhesion score” value (surgical adhesions) of the same compound?
**A.** 0.95

**Q.** And the “toxicity of drug-loaded hyaluronic acid films” value (surgical adhesions; films applied to abraded surgical site, rats)?
**A.** no associated toxicity

**Q.** Which “inhibition of intimal hyperplasia” value (rat carotid artery; 2% loading (w/w to EVA) film) does the source give for `COc1cccc2c1C(=O)c1c(O)c3c(c(O)c1C2=O)C[C@@](O)(C(=O)CO)C[C@@H]3O[C@H]1C[C@H](N)[C@H](O)[C@H](C)O1` [doxorubicin] here?
**A.** completely inhibited

**Q.** And the “inhibition of luminal narrowing” value (rat carotid artery; 2% loading (w/w to EVA) film)?
**A.** completely inhibited

**Q.** What about the “necrosis or toxicity after perivascular application” value (“necrosis or toxicity” below) (rat carotid artery; rat, in vivo) of the same compound?
**A.** did not induce any necrosis or toxicity in surrounding tissue

**Q.** And the “mean surgical adhesion score” value (surgical adhesions)?
**A.** 1.24

**Q.** And the “surgical adhesion formation, in words” value (surgical adhesions; rats)?
**A.** inhibition of adhesion formation occurs

**Q.** What about the “surgical adhesion formation, in words” value (surgical adhesions; rats, listed as dodxorubicin) of the same compound?
**A.** major inhibition of surgical adhesion formation

**Q.** And the “toxicity of drug-loaded hyaluronic acid films” value (surgical adhesions; rat, in vivo)?
**A.** did not induce any toxic side effects

**Q.** For `COc1cc([C@@H]2c3cc4c(cc3[C@@H](O[C@@H]3O[C@@H]5CO[C@@H](C)O[C@H]5[C@H](O)[C@H]3O)[C@H]3COC(=O)[C@H]23)OCO4)cc(OC)c1O` [etoposide], which “inhibition of intimal hyperplasia” value (rat carotid artery; both 1% and 5% loaded EVA films) is on record?
**A.** approximately 75%

**Q.** What about the “necrosis or toxicity” value (rat carotid artery; rat, in vivo) of the same compound?
**A.** did not induce any necrosis or toxicity in surrounding tissue

**Q.** And the “surgical adhesion formation, in words” value (surgical adhesions; rats)?
**A.** inhibition of adhesion formation occurs

**Q.** And the “toxicity of drug-loaded hyaluronic acid films” value (surgical adhesions; rat, in vivo)?
**A.** did not induce any toxic side effects

**Q.** Which “generation of superoxide anions from activated neutrophils” value (neutrophils [2]) does the source give for `CC1=CC(=O)c2c(O)cccc2C1=O` [plumbagin] here?
**A.** inhibited

**Q.** What about the “necrosis or toxicity” value (rat carotid artery; applied to the perivascular side of the rat carotid artery) of the same compound?
**A.** excessive toxicities

**Q.** What about the “neutrophil degranulation (myeloperoxidase release)” value (neutrophils [3]) of the same compound?
**A.** inhibited
